The target of the test is T1, Jug r 3 (Juglans regia, UniProt C5H617).
T1 construct: mature protein, secreted from Pichia pastoris GS115 (pPICZalphaA), signal peptide removed; four extra N-terminal residues EAEF; monomer
T1 sequence (C5H617 27-119): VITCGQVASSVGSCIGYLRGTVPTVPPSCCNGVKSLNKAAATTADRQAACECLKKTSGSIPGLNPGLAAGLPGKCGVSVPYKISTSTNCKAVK
Kind of test: ANS fluorescence displacement. In kind it is binding. The conditions noted are these: 10 uM protein, 10 uM ANS, protein:ligand 1:10 (100 uM ligand), overnight at 4 °C.

As for `CCCCCCCC/C=C\CCCCCCCC(=O)O` [OLE, oleate], the “% reduction of ANS fluorescence at protein:ligand 1:10” value turned out to be 31%.

The values are drawn from publication PMC6376136, “Impact of lipid binding on the tertiary structure and allergenic potential of Jug r 3, the non-specific lipid transfer protein from walnut” (Scientific Reports, 2019).
